The record followed here is patent US11590117B2, “Treatment of a hematologic malignancy with 2-(4-chlorophenyl)-n-((2-(2,6-dioxopiperidin-3-yl)-1-oxoisoindolin-5-yl)methyl)-2,2-difluoroacetamide” (priority 2016, dated 2023).

One assay deals with HNT-34. In words: Flow cytometry viable cell counting, 72 hours. The following applies: Homo sapiens, HNT-34 as sensitive positive control cell line in PBMC comparison, read-out: cell count IC50. It is filed as cell-based. How it is done: (§1) The effects of Compound 1 in healthy PBMCs were also assessed. Compound 1 was added to PBMC s from one donor at time zero and assessed at 72 hours. This was compared to PBMCs that were pre-activated and proliferating on anti-CD3 antibody-coated plates for 72 hours before Compound 1 was added and the cells were incubated for an additional 72 hours. HNT-34 cells were used as a sensitive positive control cell line. Peripheral blood mononuclear cells that were pre-activated were resistant to the antiproliferative effects of Compound 1 (IC50>[…]) as determined by CTG and viable cell count. However, Compound 1 did reduce cell proliferation in PBMCs that were not pre-activated, as measured using two methods, CTG and flow cytometry cell counting (CTG IC50=0.1 μM; cell count IC50=0.5 μM). […] Similar or greater differences in Compound 1-induced elevation of caspase 3/7 and membrane depolarization were seen between pre-activated PBMCs and HNT-34 cells.

The test system of a further assay is PBMCs. In words: Flow cytometry viable cell counting, 72 hours. It is filed as cell-based. Conditions: Homo sapiens, PBMC, PBMCs not pre-activated, read-out: cell count IC50. Here is the method: as §1
A general note: A flow cytometer gives signals particle by particle.

The test system of another assay is HNT-34 cells. In words: Compound 1 washout assay (glutarimide washout, viability at 72 hours). The following applies: viability after 72 hours. It counts as cell-based, human. How it is done:
Compound 1 Washout Assay: For washout experiments, AML cell lines were plated in U-bottom 96-well plates at a density of 60,000 cells per well. All cells were treated at time zero (t=0) with Compound 1, then, at each time point, cells were resuspended in washout media containing glutarimide at 1000-fold excess over the compound working concentration (eg, 100 μM glutarimide for washout of 100 nM compound treatment). At the end of the incubation period, the plates were centrifuged for 3 minutes at 200 g, supernatant was removed, and cells were resuspended in 100 μL/well 1× Annexin V binding buffer containing Annexin V (2.5 μL/well) and 7-AAD (5 μL/well). Flow cytometry was performed using a BD FACSarray instrument and results were quantified using FlowJo software. At the same time, CTG was added to the 96-(black) well plates and processed as described above in the cell proliferation assay.
In order to determine at what time point Compound 1 causes AML cell lines to commit to apoptosis, washout experiments were performed at different time points, and the cell viability was assessed after 72 hours (see schematic in FIG. 30 A). Compound 1 (100 nM) irreversibly committed the cells to apoptosis within 8 to 16 hours of treatment (FIG. 30 B). Washing out 100 nM Compound 1 between 1 and 4 hours reduced the potency (right-shift in the EC50 curve) by ˜10-fold.

The test system of the next assay is MDS progenitor cells. The assay is described as follows: MDS colony forming assay in Methocult. It counts as cell-based, human. The following applies: 24 hours exposure; compared with liquid culture. How it is done: Methods. The effect of Compound 1 on high risk MDS samples was measured in an in vitro liquid culture as well as by colony assays in order to better define its effect on stem/progenitor cells. Bone marrow mononuclear cells (BMMCs) from high risk MDS patients were cultured in vitro in CellGro medium (GellGenix) supplemented with hLDL (40 μg/mL), SCF (50 ng/mL), FLT3 […] (50 ng/mL), IL-3 (10 ng/mL), IL-6 (25 ng/mL) and TPO (100 ng/mL), all from Peprotech. During culture, cells were exposed to different concentrations of Compound 1 (37, 111, 333 and 1000 nM) or DMSO control. After 24 hours, cells were washed twice to remove compound and maintained in culture up to one week, performing viable cell counting on days 1, 3 and 7. Just after compound washout, […] per condition were collected for colony forming assays and another […] were stained for intracellular flow cytometry.
For colony forming assays cells were seeded in Methocult media (Stem Cell Technologies), incubated at 37° C. during 14 days and scored by automatic counting using StemVision (Stem Cell Technologies).

Assay [1] deals with HR-MDS, sAML and normal bone marrow progenitors. The assay is described as follows: SL/M2 stromal co-culture colony forming assay (cell survival assay). It is filed as cell-based, human. Here is the method: Methods. Mouse stromal cells SL/M2 stably expressing human interleukin-3 (IL-3), granulocyte colony stimulating factor (G-CSF) and stem cell factor (SCF) were cultured to confluency, followed by gamma-irradiation. Human CD34+ bone marrow cells isolated from 3 high-risk MDS patients (HR-MDS), 3 secondary AML patients arising from MDS (sAML) and 5 age-matched healthy donors were then cultured with inactivated SL/M2 cells for a week. Next, human progenitor cells were quantified by FACS and cells were plated in methylcellulose for colony forming assay (cell survival assay). After two weeks, 20-25 colonies were picked from each condition, resuspended and replated in fresh methylcellulose for 2nd round of colony forming assay (cell self-renewal assay).

In the next assay the test system is HL-60 human AML cells. It counts as in vivo, SCID mice. Conditions: for reduction in percentage of human CD33+/CD45+ tumor cells in the BM: vs vehicle control. Here is the method:
In this study, Compound 1 antitumor activity in the HL-60 IV AML xenograft model was studies. In this model, HL-60 human AML cells engraft in host BM and internal organs (eg, spleen, liver) and animals develop progressive peripheral leukocytosis. Female severe combined immunodeficiency (SCID) mice were inoculated with HL-60 cells by tail vein injection. To understand the effect of Compound 1 on the xenografted HL-60 cells, animals were dosed intraperitoneal (IP) with vehicle or Compound 1 (0.5, 1, 2.5, and 5 mg/kg) once daily (QD)×5 between Weeks 3 and 4 post-engraftment (AP6516, survival study) or animals were dosed IP twice daily (BID) with vehicle or Compound 1 for 5 or 10 consecutive days (5 mg/kg BID×5 or 2.5 mg/kg, BID×10) between Weeks 6 and 8 post-engraftment (Study AP6982, % human CD33+[hCD33+] cells in BM).
In this study, different Compound 1 dosing schedules (5 mg/kg, BID×5 consecutive days versus 2.5 mg/kg, BID×10 consecutive days) were studied while maintaining the total amount of drug administered constant. Vehicle control animals were treated with 5% N-methyl-2-pyrrolidone (NMP)/45% PEG 400/50% saline. Treatment was initiated 6 weeks post inoculation. Vehicle and Compound 1 treatment groups were terminated either on Day 7 (following 5 consecutive days of 5 mg/kg twice a day [BID] Compound 1) or on Day 11 (following 10 consecutive days of 2.5 mg/kg BID Compound 1) post treatment initiation. The primary endpoint for the study was percentage of hCD33+/CD45+ cells in the BM by FACS analysis. Additional endpoints included cell viability, body weight, and BM histology.
HL-60 cells were identified from femur bone marrow samples by FACS analysis as CD33+/CD45+ with human specific antibodies. The percentage of human CD33+/CD45+ cells in the BM of vehicle-treated animals from the BID×5 and BID×10 groups were 47.5±6% and 55.2±6%, respectively.

In general, IC50 refers to the concentration that inhibits the measured activity by half.

Where two headings read alike, the source gives them in different places.

As for `O=C1CCC(N2Cc3cc(CNC(=O)C(F)(F)c4ccc(Cl)cc4)ccc3C2=O)C(=O)N1` (stereo not shown) [Compound 1, 2-(4-chlorophenyl)-N-((2-(2,6-dioxopiperidin-3-yl)-1-oxoisoindolin-5-yl)methyl)-2,2-difluoroacetamide], the results for the half-maximal inhibitory concentration (IC50) in the assay on HNT-34 and with PBMCs were 4 nM and 500 nM, respectively. For the same molecule, the “reduction of potency on washout” value in the assay with HNT-34 cells (washout at 8 to 16 hours) is listed as about 4 fold. Moreover, the “reduction of potency (right-shift in the EC50 curve) on washout” value in the assay on HNT-34 cells (washout between 1 and 4 hours) was about 10 fold. The “effect on MDS progenitor cells in colony forming assays” value in the assay on MDS progenitor cells is “more acute”. In addition, in assay [1], the “colony formation (cell survival)” value was “significant cytotoxicity”. The “human CD33+/CD45+ cells in the BM” value with HL-60 human AML cells (2.5 mg/kg IP BID×10) is 15.7%; in the assay with HL-60 human AML cells (5 mg/kg IP BID×5), 21.9%. Moreover, the “reduction in percentage of human CD33+/CD45+ tumor cells in the BM” value stood at 71.5% in the assay on HL-60 human AML cells (2.5 mg/kg IP BID×10, p<0.0001) and 54.0% in the assay with HL-60 human AML cells (5 mg/kg IP BID×5, p=0.0013).
